Measured values published in the NIST ThermoML archive (doi:10.1021/je100851w).
± gives the expanded uncertainty stated by the source.

Assay: xn = mol fraction of the nth substance listed
Conditions: Vibrating tube method

S [hydrogen sulfide] + CCC
Conditions	mass density [kg/m3]
333.22 K, 2048 kPa, Gas, x1 = 0.2227	40 ± 0.1
333.22 K, 2176 kPa, Gas, x1 = 0.2227	43.6 ± 0.1
333.22 K, 2300 kPa, Gas, x1 = 0.2227	47.2 ± 0.1
333.22 K, 2398 kPa, Gas, x1 = 0.2227	50.2 ± 0.1
333.22 K, 2551 kPa, Gas, x1 = 0.2227	55.6 ± 0.1
333.22 K, 2630 kPa, Gas, x1 = 0.2227	59.1 ± 0.1
333.22 K, 2722 kPa, Gas, x1 = 0.2227	62.4 ± 0.1
333.22 K, 2778 kPa, Gas, x1 = 0.2227	65.4 ± 0.1
333.22 K, 3571 kPa, Liquid, x1 = 0.2227	438.6 ± 0.3
333.22 K, 3861 kPa, Liquid, x1 = 0.2227	441.9 ± 0.4
333.22 K, 4197 kPa, Liquid, x1 = 0.2227	445.2 ± 0.4
333.22 K, 4915 kPa, Liquid, x1 = 0.2227	450.2 ± 0.4
333.22 K, 5323 kPa, Liquid, x1 = 0.2227	453.4 ± 0.4
333.22 K, 5731 kPa, Liquid, x1 = 0.2227	456.4 ± 0.4
333.22 K, 6177 kPa, Liquid, x1 = 0.2227	459.5 ± 0.4
333.22 K, 6686 kPa, Liquid, x1 = 0.2227	462.8 ± 0.4
333.22 K, 7239 kPa, Liquid, x1 = 0.2227	466.1 ± 0.4
333.22 K, 7781 kPa, Liquid, x1 = 0.2227	469.2 ± 0.5
333.22 K, 8351 kPa, Liquid, x1 = 0.2227	472.3 ± 0.5
333.22 K, 8992 kPa, Liquid, x1 = 0.2227	475.5 ± 0.5
333.22 K, 9907 kPa, Liquid, x1 = 0.2227	479.8 ± 0.5
333.22 K, 10643 kPa, Liquid, x1 = 0.2227	482.8 ± 0.5
333.22 K, 11360 kPa, Liquid, x1 = 0.2227	485.8 ± 0.6
333.22 K, 12135 kPa, Liquid, x1 = 0.2227	488.8 ± 0.6
333.22 K, 12959 kPa, Liquid, x1 = 0.2227	491.9 ± 0.6
333.22 K, 13811 kPa, Liquid, x1 = 0.2227	495 ± 0.6
333.22 K, 14817 kPa, Liquid, x1 = 0.2227	498.4 ± 0.7
333.22 K, 15868 kPa, Liquid, x1 = 0.2227	501.8 ± 0.7
333.22 K, 16856 kPa, Liquid, x1 = 0.2227	504.8 ± 0.7
333.22 K, 17893 kPa, Liquid, x1 = 0.2227	507.8 ± 0.7
333.22 K, 18975 kPa, Liquid, x1 = 0.2227	510.8 ± 0.8
333.22 K, 20100 kPa, Liquid, x1 = 0.2227	513.8 ± 0.8
333.22 K, 21435 kPa, Liquid, x1 = 0.2227	517.2 ± 0.8
333.22 K, 22830 kPa, Liquid, x1 = 0.2227	520.5 ± 0.8
333.22 K, 24120 kPa, Liquid, x1 = 0.2227	523.5 ± 0.9
333.22 K, 25466 kPa, Liquid, x1 = 0.2227	526.5 ± 0.9
333.22 K, 26959 kPa, Liquid, x1 = 0.2227	529.7 ± 0.9
333.22 K, 28465 kPa, Liquid, x1 = 0.2227	532.7 ± 0.9
333.22 K, 30160 kPa, Liquid, x1 = 0.2227	536 ± 1
333.22 K, 31961 kPa, Liquid, x1 = 0.2227	539.4 ± 1
333.22 K, 33791 kPa, Liquid, x1 = 0.2227	542.6 ± 1
333.22 K, 35752 kPa, Liquid, x1 = 0.2227	546 ± 1.1
333.22 K, 37781 kPa, Liquid, x1 = 0.2227	549.3 ± 1.1
333.22 K, 39778 kPa, Liquid, x1 = 0.2227	552.5 ± 1.2
363.24 K, 9 kPa, Fluid (supercritical or subcritical phases), x1 = 0.2691	0.1
363.24 K, 313 kPa, Fluid (supercritical or subcritical phases), x1 = 0.2691	4.4 ± 0.1
363.24 K, 596 kPa, Fluid (supercritical or subcritical phases), x1 = 0.2691	8.6 ± 0.1
363.24 K, 842 kPa, Fluid (supercritical or subcritical phases), x1 = 0.2691	12.3 ± 0.1
363.24 K, 1110 kPa, Fluid (supercritical or subcritical phases), x1 = 0.2691	16.6 ± 0.1
363.24 K, 1358 kPa, Fluid (supercritical or subcritical phases), x1 = 0.2691	20.8 ± 0.1
363.24 K, 1602 kPa, Fluid (supercritical or subcritical phases), x1 = 0.2691	25 ± 0.1
363.24 K, 1810 kPa, Fluid (supercritical or subcritical phases), x1 = 0.2691	28.7 ± 0.1
363.24 K, 2014 kPa, Fluid (supercritical or subcritical phases), x1 = 0.2691	32.7 ± 0.1
363.24 K, 2204 kPa, Fluid (supercritical or subcritical phases), x1 = 0.2691	36.6 ± 0.1
363.24 K, 2401 kPa, Fluid (supercritical or subcritical phases), x1 = 0.2691	40.6 ± 0.1
363.24 K, 2576 kPa, Fluid (supercritical or subcritical phases), x1 = 0.2691	44.4 ± 0.1
363.24 K, 2742 kPa, Fluid (supercritical or subcritical phases), x1 = 0.2691	48.3 ± 0.1
363.24 K, 2905 kPa, Fluid (supercritical or subcritical phases), x1 = 0.2691	52.3 ± 0.1
363.24 K, 3058 kPa, Fluid (supercritical or subcritical phases), x1 = 0.2691	56.2 ± 0.1
363.24 K, 3211 kPa, Fluid (supercritical or subcritical phases), x1 = 0.2691	60.3 ± 0.1
363.24 K, 3358 kPa, Fluid (supercritical or subcritical phases), x1 = 0.2691	64.4 ± 0.1
363.24 K, 3493 kPa, Fluid (supercritical or subcritical phases), x1 = 0.2691	68.4 ± 0.1
363.24 K, 3613 kPa, Fluid (supercritical or subcritical phases), x1 = 0.2691	72.3 ± 0.1
